Data published in ChEMBL document CHEMBL4371077, “Cyclic tripeptide-based potent human SIRT7 inhibitors” (Bioorg Med Chem Lett, 2019).
Residues, ends and D or L forms follow the SMILES beside them.

Columns and labels:
[1] = molecular target: NAD-dependent protein deacylase sirtuin-5, mitochondrial (Homo sapiens, UniProt Q9NXA8); assay: Inhibition of desuccinylation activity of recombinant human full length N-terminal GST-tagged SIRT5 expressed in Escherichia coli using CH3CONH-AR-[Nepsilon-succinyl-lysine]-ST-CONH2 as substrate measured after 5 mins by HPLC analysis
Sequence of NAD-dependent protein deacylase sirtuin-5, mitochondrial (Q9NXA8 whole entry, the tested form may be a part): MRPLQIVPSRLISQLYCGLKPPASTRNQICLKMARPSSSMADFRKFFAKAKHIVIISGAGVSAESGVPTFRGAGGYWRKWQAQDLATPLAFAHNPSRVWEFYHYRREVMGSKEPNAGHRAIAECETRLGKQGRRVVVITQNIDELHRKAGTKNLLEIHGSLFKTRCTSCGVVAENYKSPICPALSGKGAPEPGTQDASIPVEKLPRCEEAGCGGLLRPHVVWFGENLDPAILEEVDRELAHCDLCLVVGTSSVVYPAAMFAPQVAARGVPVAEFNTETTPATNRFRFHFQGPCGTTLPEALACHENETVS

[2] = molecular target: T1, NAD-dependent protein deacetylase sirtuin-3, mitochondrial (Homo sapiens, UniProt Q9NTG7); assay: Inhibition of deacetylation activity of recombinant human N-terminal His6-tagged SIRT3 (101 to 399 residues) expressed in Escherichia coli using H2N-HK-[Nepsilon-acetyl-lysine]-LM-COOH as substrate measured after 10 mins by HPLC analysis
T1 sequence (Q9NTG7 whole entry): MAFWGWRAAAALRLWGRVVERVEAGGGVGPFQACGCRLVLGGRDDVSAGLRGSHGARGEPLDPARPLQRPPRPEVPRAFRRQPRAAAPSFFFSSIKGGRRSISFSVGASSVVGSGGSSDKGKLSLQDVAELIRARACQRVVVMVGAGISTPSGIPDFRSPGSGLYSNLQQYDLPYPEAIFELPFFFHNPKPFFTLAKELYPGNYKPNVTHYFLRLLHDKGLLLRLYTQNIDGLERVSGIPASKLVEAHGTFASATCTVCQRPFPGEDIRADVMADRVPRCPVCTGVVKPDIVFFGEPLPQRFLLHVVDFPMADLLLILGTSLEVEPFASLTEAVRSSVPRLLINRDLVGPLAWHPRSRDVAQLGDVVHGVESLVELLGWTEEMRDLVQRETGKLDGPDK

[3] = molecular target: T2, NAD-dependent protein deacetylase sirtuin-2 (Homo sapiens, UniProt Q8IXJ6); assay: Inhibition of deacetylation activity of recombinant human N-terminal His6-tagged SIRT2 (2 to 389 residues) expressed in Escherichia coli using H2N-HK-[Nepsilon-acetyl-lysine]-LM-COOH as substrate measured after 12 mins by HPLC analysis
T2 sequence (Q8IXJ6 whole entry): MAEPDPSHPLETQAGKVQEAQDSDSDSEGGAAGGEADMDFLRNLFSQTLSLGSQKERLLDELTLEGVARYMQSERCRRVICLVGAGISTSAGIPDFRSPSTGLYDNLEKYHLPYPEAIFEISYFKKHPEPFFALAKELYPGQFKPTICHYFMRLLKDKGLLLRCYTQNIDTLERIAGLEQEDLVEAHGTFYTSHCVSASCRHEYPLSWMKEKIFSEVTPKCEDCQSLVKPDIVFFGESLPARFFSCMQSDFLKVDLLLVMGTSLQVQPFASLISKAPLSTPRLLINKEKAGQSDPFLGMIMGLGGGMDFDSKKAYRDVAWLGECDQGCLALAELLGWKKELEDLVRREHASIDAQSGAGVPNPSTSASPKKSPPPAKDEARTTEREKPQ

[4] = molecular target: T3, NAD-dependent protein deacetylase sirtuin-1 (Homo sapiens, UniProt Q96EB6); assay: Inhibition of recombinant human SIRT1 deacetylase activity using H2N-HK-[Nepsilon-acetyl-lysine]-LM-COOH as substrate measured after 10 mins by HPLC analysis
T3 sequence (Q96EB6 whole entry): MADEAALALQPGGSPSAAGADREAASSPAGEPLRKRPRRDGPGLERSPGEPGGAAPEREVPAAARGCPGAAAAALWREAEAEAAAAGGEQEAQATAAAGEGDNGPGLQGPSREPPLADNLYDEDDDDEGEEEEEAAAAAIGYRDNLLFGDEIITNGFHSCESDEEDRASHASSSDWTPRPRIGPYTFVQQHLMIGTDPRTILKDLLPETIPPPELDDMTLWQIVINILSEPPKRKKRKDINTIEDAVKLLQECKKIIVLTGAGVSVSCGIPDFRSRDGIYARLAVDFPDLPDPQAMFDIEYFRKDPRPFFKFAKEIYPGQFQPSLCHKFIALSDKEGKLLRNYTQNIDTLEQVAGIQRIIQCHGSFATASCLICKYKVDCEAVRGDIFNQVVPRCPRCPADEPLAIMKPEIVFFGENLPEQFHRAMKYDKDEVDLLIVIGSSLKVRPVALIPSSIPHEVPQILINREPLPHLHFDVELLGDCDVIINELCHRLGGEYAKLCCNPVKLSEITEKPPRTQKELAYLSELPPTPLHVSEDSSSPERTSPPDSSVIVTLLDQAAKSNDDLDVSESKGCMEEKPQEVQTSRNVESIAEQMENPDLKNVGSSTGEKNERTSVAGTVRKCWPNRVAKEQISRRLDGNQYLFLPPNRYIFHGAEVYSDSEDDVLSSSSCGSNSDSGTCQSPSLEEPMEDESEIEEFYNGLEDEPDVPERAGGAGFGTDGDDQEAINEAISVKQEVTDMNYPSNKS

[5] = molecular target: NAD-dependent protein deacylase sirtuin-6 (Homo sapiens, UniProt Q8N6T7); assay: Inhibition of demyristoylation activity of recombinant human full length N-terminal His6-tagged SIRT6 expressed in Escherichia coli using H2N-EALPK-[Nepsilon-myristoyl-lysine]-TGGPQ-CONH2 as substrate measured after 12 mins by HPLC analysis
Sequence of NAD-dependent protein deacylase sirtuin-6 (Q8N6T7 whole entry): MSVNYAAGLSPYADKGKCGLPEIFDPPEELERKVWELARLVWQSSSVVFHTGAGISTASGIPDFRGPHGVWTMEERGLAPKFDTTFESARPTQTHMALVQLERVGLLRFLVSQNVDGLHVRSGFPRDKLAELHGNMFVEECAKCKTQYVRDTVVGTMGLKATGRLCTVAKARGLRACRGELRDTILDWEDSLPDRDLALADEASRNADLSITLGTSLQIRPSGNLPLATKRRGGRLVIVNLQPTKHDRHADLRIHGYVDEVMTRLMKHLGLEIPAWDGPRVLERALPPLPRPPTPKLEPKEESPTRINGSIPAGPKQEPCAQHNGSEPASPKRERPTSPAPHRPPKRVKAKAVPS

[6] = Proteolytic stability of the compound assessed as Streptomyces griseus pronase-mediated compound hydrolysis by measuring parent compound remaining after 6 mins by HPLC method; type: ADME; settings: read-out: Stability
[7] = molecular target: T4, NAD-dependent protein deacetylase sirtuin-7 (Homo sapiens, UniProt Q9NRC8); assay: Inhibition of tRNA-activated deacetylation activity of recombinant human full length N-terminal His6-tagged SIRT7 expressed in Escherichia coli using H2N-GGKAPR-[Nepsilon-acetyl-lysine]-QLATKA-CONH2 as substrate measured after 30 mins by HPLC analysis
T4 sequence (Q9NRC8 whole entry): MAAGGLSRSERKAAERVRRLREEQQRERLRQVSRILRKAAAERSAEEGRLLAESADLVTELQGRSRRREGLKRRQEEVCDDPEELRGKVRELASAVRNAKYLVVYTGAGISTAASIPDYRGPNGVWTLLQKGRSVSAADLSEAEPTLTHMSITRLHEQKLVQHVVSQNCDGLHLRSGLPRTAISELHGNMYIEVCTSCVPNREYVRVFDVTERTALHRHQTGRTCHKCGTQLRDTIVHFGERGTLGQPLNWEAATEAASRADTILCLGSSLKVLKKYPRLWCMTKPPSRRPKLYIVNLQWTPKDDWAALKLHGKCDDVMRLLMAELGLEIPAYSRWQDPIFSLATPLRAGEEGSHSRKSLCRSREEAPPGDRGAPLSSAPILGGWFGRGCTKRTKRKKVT

Row | Structure (SMILES) | IC50 [1] | IC50 [2] | IC50 [3] | IC50 [4] | IC50 [5] | remaining at 0.1 h [6] | IC50 [7]
1 | CCCCCCCCCCCCNC(=S)NCCCC[C@@H]1NC(=O)[C@H](CCCNC(=N)N)NC(=O)CNC(=O)CCC(=O)NCC(=O)NCCCC[C@@H](C(N)=O)NC1=O | > 150 µM | 1.6 µM | 10.3 µM | 1.8 µM | 7.9 µM | 55.7% | 11.1 µM
2 | CCCCCCCCCCCCCCNC(=S)NCCCC[C@@H]1NC(=O)[C@H](CCCNC(=N)N)NC(=O)CNC(=O)CCC(=O)NCC(=O)NCCCC[C@@H](C(N)=O)NC1=O |  |  |  |  |  |  | 85.3 µM
3 | CCCCCCCCCCCCNC(=O)CCCCC[C@@H]1NC(=O)[C@H](CCCNC(=N)N)NC(=O)CNC(=O)CCC(=O)NCC(=O)NCCCC[C@@H](C(N)=O)NC1=O | > 200 µM | 4.2 µM | 0.55 µM | 4.3 µM | 11.2 µM | 89.9% | 5 µM
4 | CSCC[C@H](NC(=O)[C@H](CC(C)C)NC(=O)[C@H](CCCCNC(C)=O)NC(=O)[C@H](CCCCN)NC(=O)[C@@H](N)Cc1cnc[nH]1)C(=O)O (H-HKK(Ac)LM-OH) |  |  |  |  |  | 51.1% | 
